Legend:
[1] = Pharmacokinetics of carboplatin in nude mice bearing A549 xenografts; type: in vivo; details: for AUC / CL / Cmax / T1/2 / Vss: nude mice bearing A549 xenografts, carboplatin 60 mg/kg iv
Procedure: (§1) Pharmacokinetics and Tissue Distribution of Carboplatin. Pharmacokinetic studies were carried out using a protocol similar to that previously described (26) using metabolism cages. Female nude mice bearing human colon cancer LS174T xenografts or human lung cancer A549 xenografts were used (3 animals for each time point). Animals were pre-treated with DEX (s.c., 0.1 mg/day/mouse for 5 days) or saline (as controls) and, at 1 hr after the fifth dose of DEX, were given a single intravenously (i.v.) bolus administration of carboplatin (60 mg/kg) via a tail vein. At various times (5, 15, and 30 min, 1, 2, 4, 8, and 24 hr after carboplatin dosing), blood samples were collected in heparinized tubes and tissue samples removed. Plasma was separated by centrifugation at 20,000 g for 5 min. Tissues including liver, kidneys, spleen, and tumor were taken at various times and immediately blotted on Whatman No. 1 filter paper, trimmed of extraneous fat or connective tissue, weighed, and homogenized in 0.9% NaCl physiological saline (5 mL per gram of wet weight). The resultant homogenates were stored at −70° C. until further analysis. Bone marrow cells were harvested by flushing the femurs with sterile physiological saline as reported previously (30). Briefly, after removing the distal and proximal ends of femur, each end of the bone was punctured with a 20-gauge needle fitted with a 5 mL syringe containing 1 mL of sterile physiological saline (pre-weighed). The bone was then held with a forceps over a test tube and the needle was inserted into the hole in the proximal end. The 1 mL saline was flushed through the bone into the tube by applying gentle, steady pressure to the plunger. The syringe was then filled with 5 ml of air that was gently forced through the bone to remove the remaining saline and bone marrow in the shaft. The resultant bone marrow cell suspension was weighed and lysed by sonicating 5 times for periods of 10 sec. Following centrifugation at 20,000 g for 30 min, the supernatant was removed and stored at −70° C. until further analysis.
(§2) HPLC Analysis of Carboplatin in Plasma and Tissues. Carboplatin in biological samples was analyzed by an analytical procedure involving micro-filtration and reversed-phase HPLC (31). 200 μL of plasma or tissue homogenates or bone marrow suspension was added to the reservoir of a Centrifree™ micropartition system. The latter was capped and centrifuged at 2,000 g for 5 min. All filtrates were transferred into a new micro centrifuge tube and 6 μL of the filtrates was injected onto the HPLC column. The HPLC system consisted of a Hewlett Packard 1050 ChemStation with a UV detector (Agilent 1050 series). Determination of Carboplatin was achieved using a LiChrosorb™ diol (10 μm, 250×4.6 mm) analytical column with a LiChroCART 100 RP-18 guard column. The mobile phase for plasma was composed of 98:2 acetonitrile:H2O (vol/vol) and 89:11 acetonitrile: 0.015% H3PO4 (vol/vol) for urine and tissue samples. The flow rates were 2 mL/min (for plasma) and 1.1 mL/min (for urine and tissue samples). The column elute was monitored by UV at 229 nm. Quantitation of plasma or tissue carboplatin was carried out by using an external standard curve (0-4,000.0 μg/mL) that was freshly prepared on a daily basis. Linear regression and correlation analysis were carried out to establish the standard peak-area/concentration curves for carboplatin.
(§3) Data and Statistical Analysis.

[2] = Pharmacokinetics of carboplatin in nude mice bearing LS174T xenografts; type: in vivo; details: for AUC / CL / Cmax / T1/2 / Vss: nude mice bearing LS174T xenografts, carboplatin 60 mg/kg iv
Procedure: as §1, §2, §3

[3] = LS174T nude mice, without DEX treatment

In the case of `N.N.O=C([O-])C1(C(=O)[O-])CCC1.[Pt+2]` [carboplatin], the “increase in tumor AUC by DEX pretreatment” value ([1]; A549 nude mice) is reported as 50%, the AUC ([1]; bone marrow, DEX (+)) is reported as 517210 ng·h/mL and the CL ([1]; bone marrow, DEX (+)) is reported as 0.01 mL/g/h. It also gave a Cmax ([1]; bone marrow, DEX (+)) of 27290 ng/mL, a T1/2 ([1]; bone marrow, DEX (+)) of 30 min and a Vss ([1]; bone marrow, DEX (+)) of 2.72 mL/g. The AUC ([1]; bone marrow, DEX (−)) was 641040 ng·h/mL, the CL ([1]; bone marrow, DEX (−)) was 0.01 mL/g/h and the Cmax ([1]; bone marrow, DEX (−)) was 32580 ng/mL. For the same molecule, the T1/2 ([1]; bone marrow, DEX (−)) was 30 min, the Vss ([1]; bone marrow, DEX (−)) was 1.97 mL/g and the AUC ([1]; liver, DEX (+)) was 21680 ng·h/mL. The CL ([1]; liver, DEX (+)) was 4.79 mL/g/h, the Cmax ([1]; liver, DEX (+)) was 5910 ng/mL and the T1/2 ([1]; liver, DEX (+)) was 60 min. For the same molecule, the Vss ([1]; liver, DEX (+)) was 9.05 mL/g, the AUC ([1]; liver, DEX (−)) was 26320 ng·h/mL and the CL ([1]; liver, DEX (−)) was 3.99 mL/g/h. The Cmax ([1]; liver, DEX (−)) was 7000 ng/mL, the T1/2 ([1]; liver, DEX (−)) was 60 min and the Vss ([1]; liver, DEX (−)) was 8.31 mL/g. The AUC ([1]; plasma, DEX (+)) was 66080 ng·h/mL, the CL ([1]; plasma, DEX (+)) was 0.91 mL/g/h and the Cmax ([1]; plasma, DEX (+)) was 411890 ng/mL. The T1/2 ([1]; plasma, DEX (+)) was 6.6 min, the Vss ([1]; plasma, DEX (+)) was 0.15 mL/g and the AUC ([1]; plasma, DEX (−)) was 55220 ng·h/mL. The CL ([1]; plasma, DEX (−)) was 1.09 mL/g/h, the Cmax ([1]; plasma, DEX (−)) was 357340 ng/mL and the T1/2 ([1]; plasma, DEX (−)) was 6.6 min. It also gave a Vss ([1]; plasma, DEX (−)) of 0.17 mL/g, an AUC ([1]; spleen, DEX (+)) of 75590 ng·h/mL and a CL ([1]; spleen, DEX (+)) of 0.79 mL/g/h. It also gave a Cmax ([1]; spleen, DEX (+)) of 482140 ng/mL, a T1/2 ([1]; spleen, DEX (+)) of 6.6 min and a Vss ([1]; spleen, DEX (+)) of 0.12 mL/g. For the same molecule, the AUC ([1]; spleen, DEX (−)) was 359440 ng·h/mL, the CL ([1]; spleen, DEX (−)) was 0.17 mL/g/h and the Cmax ([1]; spleen, DEX (−)) was 341990 ng/mL. The T1/2 ([1]; spleen, DEX (−)) was 43.8 min, the Vss ([1]; spleen, DEX (−)) was 0.18 mL/g and the AUC ([1]; tumor, DEX (+)) was 15480 ng·h/mL. The CL ([1]; tumor, DEX (+)) was 3.88 mL/g/h, the Cmax ([1]; tumor, DEX (+)) was 64090 ng/mL and the T1/2 ([1]; tumor, DEX (+)) was 10.2 min. For the same molecule, the Vss ([1]; tumor, DEX (+)) was 0.94 mL/g, the AUC ([1]; tumor, DEX (−)) was 10160 ng·h/mL and the CL ([1]; tumor, DEX (−)) was 5.90 mL/g/h. It also gave a Cmax ([1]; tumor, DEX (−)) of 32150 ng/mL, a T1/2 ([1]; tumor, DEX (−)) of 13.2 min and a Vss ([1]; tumor, DEX (−)) of 1.87 mL/g. For the same molecule, the “decrease in tumor Clearance by DEX pretreatment” value ([2]; LS174T nude mice) was 160%, the “increase in tumor AUC by DEX pretreatment” value ([2]; LS174T nude mice) was 200% and the “increase in tumor Cmax by DEX pretreatment” value ([2]; LS174T nude mice) was 100%. The “tumor AUC relative to bone marrow AUC” value [2, 3] was 3%, the “tumor AUC relative to liver AUC” value [2, 3] was 23% and the “tumor AUC relative to spleen AUC” value [2, 3] was 4%. The AUC ([2]; bone marrow, DEX (+)) was 269710 ng·h/mL, the CL ([2]; bone marrow, DEX (+)) was 0.22 mL/g/h and the Cmax ([2]; bone marrow, DEX (+)) was 22560 ng/mL. For the same molecule, the T1/2 ([2]; bone marrow, DEX (+)) was 410 min, the Vss ([2]; bone marrow, DEX (+)) was 2.17 mL/g and the AUC ([2]; bone marrow, DEX (−)) was 411270 ng·h/mL. It also gave a CL ([2]; bone marrow, DEX (−)) of 0.15 mL/g/h, a Cmax ([2]; bone marrow, DEX (−)) of 23360 ng/mL and a T1/2 ([2]; bone marrow, DEX (−)) of 669.6 min. For the same molecule, the Vss ([2]; bone marrow, DEX (−)) was 2.42 mL/g, the AUC ([2]; liver, DEX (+)) was 42450 ng·h/mL and the CL ([2]; liver, DEX (+)) was 1.41 mL/g/h. For the same molecule, the Cmax ([2]; liver, DEX (+)) was 19410 ng/mL, the T1/2 ([2]; liver, DEX (+)) was 33.6 min and the Vss ([2]; liver, DEX (+)) was 1.14 mL/g. The AUC ([2]; liver, DEX (−)) was 51520 ng·h/mL, the CL ([2]; liver, DEX (−)) was 1.16 mL/g/h and the Cmax ([2]; liver, DEX (−)) was 26970 ng/mL. The T1/2 ([2]; liver, DEX (−)) was 29.4 min, the Vss ([2]; liver, DEX (−)) was 0.82 mL/g and the AUC ([2]; plasma, DEX (+)) was 43160 ng·h/mL. The CL ([2]; plasma, DEX (+)) was 1.39 mL/g/h, the Cmax ([2]; plasma, DEX (+)) was 280800 ng/mL and the T1/2 ([2]; plasma, DEX (+)) was 6.6 min. It also gave a Vss ([2]; plasma, DEX (+)) of 0.21 mL/g, an AUC ([2]; plasma, DEX (−)) of 44510 ng·h/mL and a CL ([2]; plasma, DEX (−)) of 1.35 mL/g/h. For the same molecule, the Cmax ([2]; plasma, DEX (−)) was 375270 ng/mL, the T1/2 ([2]; plasma, DEX (−)) was 4.8 min and the Vss ([2]; plasma, DEX (−)) was 0.16 mL/g. It also gave an AUC ([2]; spleen, DEX (+)) of 480 ng·h/mL, a CL ([2]; spleen, DEX (+)) of 126.35 mL/g/h and a Cmax ([2]; spleen, DEX (+)) of 9440 ng/mL. The T1/2 ([2]; spleen, DEX (+)) was 2.4 min, the Vss ([2]; spleen, DEX (+)) was 6.36 mL/g and the AUC ([2]; spleen, DEX (−)) was 353360 ng·h/mL. It also gave a CL ([2]; spleen, DEX (−)) of 0.17 mL/g/h, a Cmax ([2]; spleen, DEX (−)) of 24200 ng/mL and a T1/2 ([2]; spleen, DEX (−)) of 595 min. The Vss ([2]; spleen, DEX (−)) was 2.43 mL/g, the AUC ([2]; tumor, DEX (+)) was 33540 ng·h/mL and the CL ([2]; tumor, DEX (+)) was 1.79 mL/g/h. For the same molecule, the Cmax ([2]; tumor, DEX (+)) was 89800 ng/mL, the T1/2 ([2]; tumor, DEX (+)) was 15.6 min and the Vss ([2]; tumor, DEX (+)) was 0.67 mL/g. It also gave an AUC ([2]; tumor, DEX (−)) of 12790 ng·h/mL, a CL ([2]; tumor, DEX (−)) of 4.69 mL/g/h and a Cmax ([2]; tumor, DEX (−)) of 44160 ng/mL. It also gave a T1/2 ([2]; tumor, DEX (−)) of 12 min and a Vss ([2]; tumor, DEX (−)) of 1.36 mL/g.

— patent publication US20050244335A1, “Methods and compositions related to increasing antitumor activity of chemotherapeutic agents” (priority 2004, published 2005)
